In this assay the test system is CRC cells (HT29, HCT116 and DLD1). Briefly: MTT cell viability assay in CRC cell lines. The class given is cell-based. Here is the method: The PRMT5 inhibitory activity of the compounds from the screen was confirmed using both AlphaLISA and an MTT [(3-(4,5-dimethylthiazolyl-2)-2,5-diphenyltetrazolium bromide)] assay (PerkinElmer, Waltham, MA). For the MTT assay, cells were seeded at 90% confluence in 96-well plates and titrated with different dosages of compound (IIa) for 4 days. Media was then removed and 100 μl of MTT (Sigma-Aldrich, St. Louis, MO) was added per well. Cells were incubated for 2 hours at 37° C. before adding 100 μl of DMSO to each well and quantified with the SYNERGY™ H1 Multi-Mode Reader (BioTek Instruments Inc., Winooski, VT). The expression of PRMT5 was examined in pancreatic ductal adenocarcinoma cells at multiple stages of disease progression and in multiple colorectal cancer cell lines. Pancreatic control (HPNE) and cancer cell lines (PANC1, MiaPaCa2 and AsPC1) were grown in Dulbecco's Modified Eagle Medium (DMEM) (GE Healthcare, Little Chalfont, UK), supplemented with 1% of penicillin/streptomycin, 10% fetal bovine serum (FBS). Colon control (FHC) and cancer (HT29, HCT116, and DLD1) cell lines were maintained in RPMI 1640 Medium (Roswell Park Memorial Institute Medium) (GE Healthcare, Little Chalfont, UK), containing 1% penicillin/streptomycin and 10% FBS, while FHC cells were cultured under the same condition with further addition of 25 mM HEPES (4-(2-hydroxyethyl)-1-piperazineethanesulfonic acid), 10 ng/ml cholera toxin, 0.005 mg/ml insulin, 0.005 mg/ml transferring, and 100 ng/ml hydrocortisone. All cell lines were cultured at 37° C. under 5% CO2. The PDAC and CRC cell lines described above were treated with increasing concentrations of compound (IIa) or the commercially available PRMT5 inhibitor EPZ015666 [drawing 12] and quantified for cell viability using the MTT assay described above. […] A soft agar experiment was also performed to determine the effect of compound (IIa) on colony growth.
(Formazan colour is commonly taken as a measure of viable cells.)

The source of these data is patent publication US12516052B2, “Methyltransferase 5 (PRMT5) inhibitors and methods of treatment” (THE TRUSTEES OF INDIANA UNIVERSITY, priority 2016, dated 2026).

As to `Cc1ccc(Nc2nc(NCCN(C)C)nc3c2cnn3-c2ccccc2)cc1C` [compound (IIa)], where the note is “increasing concentrations”, the “cell viability in CRC cells (HT29, HCT116, DLD1), MTT” value is “decreased significantly”. Moreover, the IC50 (range over HT29, HCT116 and DLD1) is 10 to 11 µM.

Broadly, the IC50 is the midpoint of a concentration-inhibition curve.
